From patent US9187465B2, “Oxazole tyrosine kinase inhibitors” (Sareum Limited, priority 2007, dated 2015)

Columns and labels:
Type in all cases: biochemical
human FLT3 = target: T1, human FLT3 (Homo sapiens, UniProt P36888); experiment: FLT3 kinase assay (DELFIA enzyme inhibition)
T1 construct: a construct expressing the human FLT3 (564-993) with an amino terminal GST tag; host or cells: Sf9 insect cells (baculovirus)
T1 sequence (P36888 564-993): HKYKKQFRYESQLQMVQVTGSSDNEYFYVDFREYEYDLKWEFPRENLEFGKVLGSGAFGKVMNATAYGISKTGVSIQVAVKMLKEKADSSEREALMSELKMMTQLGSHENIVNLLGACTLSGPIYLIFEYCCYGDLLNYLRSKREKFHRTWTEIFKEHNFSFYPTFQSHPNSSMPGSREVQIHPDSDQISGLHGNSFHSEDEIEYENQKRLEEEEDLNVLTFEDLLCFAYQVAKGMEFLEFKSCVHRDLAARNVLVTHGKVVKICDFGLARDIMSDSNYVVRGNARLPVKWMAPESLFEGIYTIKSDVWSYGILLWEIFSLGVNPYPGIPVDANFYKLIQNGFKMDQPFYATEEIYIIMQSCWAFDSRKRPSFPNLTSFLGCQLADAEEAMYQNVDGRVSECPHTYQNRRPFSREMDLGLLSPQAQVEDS
Description: A GST-kinase fusion protein of 70 KDa was produced using sf9 baculovirus expression system, with a construct expressing the human FLT3 (564-993) with an amino terminal GST tag. The protein was purified by one-step affinity chromatography using glutathione-agarose.
FLT3 enzyme activity is determined using a Dissociation Enhanced Lanthanide Fluorescent Immunoassay (DELFIA) with a peptide substrate derived from the Gastrin Precursor (Tyr 87) peptide […] with a core sequence: EAYGW.
The amount of phosphorylated peptide produced is detected by means of a phospho-Tyrosine specific Europium-labelled antibody using Time-Resolved Fluorescence at Excitation 360-35 nm and Emission 620-35 nm.
Assay reactions are set up in a 25 uL final volume on a 96 well plate. […] The reaction is allowed to proceed for 30 minutes at room temperature before stopping with 100 μL Stop solution comprising of 100 mM EDTA, 1×BSA blocker in TBS (Perbio) and 0.05% Surfact-Amps20 (Perbio).
The stopped reaction is transferred to a black 96-well Neutravidin-coated plate (Perbio) and incubated for 30 minutes to capture the biotinylated peptide substrate. After washing wells 3 times with 200 uL TBS/T buffer, Anti-Phospho-Tyr-100 antibody labelled with Eu—N1 (Perkin Elmer AD0159) is added to all wells for 60 minutes at room temperature. After a repeat washing step, DELFIA Enhancement solution (Perkin Elmer) is added to all wells for 5 minutes and the fluorescence measured on a plate reader Analyst HT (Molecular Devices).
The % inhibition of the activity is calculated and plotted in order to determine the concentration of test compound required to inhibit 50% of the enzyme activity (IC50).

human Aurora A = target: T2, human Aurora A (Homo sapiens, UniProt O14965); experiment: Aurora A kinase assay (DELFIA enzyme inhibition); conditions: read-out: Aurora A IC50
T2 construct: Histidine tag (N); host or cells: Sf9 insect cells (baculovirus)
T2 sequence (O14965 1-403): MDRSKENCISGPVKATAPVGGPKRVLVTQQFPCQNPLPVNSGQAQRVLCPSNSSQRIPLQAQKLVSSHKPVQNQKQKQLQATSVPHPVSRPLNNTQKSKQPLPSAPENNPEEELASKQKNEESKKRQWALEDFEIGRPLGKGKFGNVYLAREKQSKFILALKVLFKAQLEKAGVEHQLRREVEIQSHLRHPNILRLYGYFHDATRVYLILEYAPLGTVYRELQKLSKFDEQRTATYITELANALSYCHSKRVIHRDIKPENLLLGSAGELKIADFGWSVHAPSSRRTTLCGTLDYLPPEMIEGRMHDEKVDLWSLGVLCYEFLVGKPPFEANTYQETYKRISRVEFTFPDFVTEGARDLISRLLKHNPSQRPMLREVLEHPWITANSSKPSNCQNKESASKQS
Procedure, shortened: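 DELFIA read-out (time-resolved Eu fluorescence, 620 nm emission) after Neutravidin capture of biotinylated peptide substrate and antibody detection. Reaction: Ni-agarose-purified Aurora A, 30 min at room temperature, stopped with 100 mM EDTA.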

human FLT4 = target: T3, human FLT4 (Homo sapiens, UniProt P35916); experiment: FLT4 kinase assay (DELFIA enzyme inhibition); conditions: read-out: FLT4 IC50
T3 construct: a construct expressing the human FLT4 (789-1207) with an amino terminal GST tag; host or cells: Sf9 insect cells (baculovirus)
Procedure, shortened: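 GST-tagged human FLT4 (789-1207) from Sf9 cells phosphorylates a biotinylated MET (Tyr1253)-derived peptide for 30 min at room temperature, stopped with EDTA. Phosphopeptide is captured on Neutravidin and detected with Eu-labelled anti-phosphotyrosine antibody by time-resolved fluorescence; IC50 from % inhibition curves.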

T3 sequence (P35916 789-1207): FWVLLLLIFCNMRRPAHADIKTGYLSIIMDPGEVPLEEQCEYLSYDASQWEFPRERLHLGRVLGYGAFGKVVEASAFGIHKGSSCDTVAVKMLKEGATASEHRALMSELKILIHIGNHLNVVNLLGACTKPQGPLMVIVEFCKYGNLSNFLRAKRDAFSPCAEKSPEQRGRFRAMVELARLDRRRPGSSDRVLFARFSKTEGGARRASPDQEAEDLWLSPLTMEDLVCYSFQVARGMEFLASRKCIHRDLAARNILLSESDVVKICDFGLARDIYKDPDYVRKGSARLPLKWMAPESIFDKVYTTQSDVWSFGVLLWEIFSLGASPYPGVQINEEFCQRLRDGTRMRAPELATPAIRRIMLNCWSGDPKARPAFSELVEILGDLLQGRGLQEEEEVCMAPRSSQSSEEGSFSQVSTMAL

| IC50 (human FLT3) | IC50 (human Aurora A) | IC50 (human FLT4) | SMILES |
| --- | --- | --- | --- |
| < 100 µM | – | < 10 µM | COc1ccc(-c2oc(-c3ccccc3)nc2C(N)=O)cc1 [Example M-2, 5-(4-methoxyphenyl)-2-phenyloxazole-4-carboxamide] |
| < 100 µM | – | < 100 µM | COc1ccc(-c2oc(-c3ccc(C#N)cc3)nc2C(N)=O)cc1 [Example M-9, 2-(4-cyanophenyl)-5-(4-methoxyphenyl)oxazole-4-carboxamide] |
| < 100 µM | – | – | COc1ccc(-c2oc(-c3ccc(S(C)(=O)=O)cc3)nc2C(N)=O)cc1 [Example M-11, 5-(4-methoxyphenyl)-2-(4-(methylsulfonyl)phenyl)oxazole-4-carboxamide] |
| < 100 µM | – | < 10 µM | COc1ccc(-c2oc(-c3cccc(NC(C)=O)c3)nc2C(N)=O)cc1 [Example N-3, 2-(3-acetamidophenyl)-5-(4-methoxyphenyl)oxazole-4-carboxamide] |
| < 100 µM | < 100 µM | – | COc1ccc(-c2oc(-c3cccc(C(F)(F)F)c3)nc2C(N)=O)cc1 [Example N-8, 5-(4-methoxyphenyl)-2-(3-(trifluoromethyl)phenyl)oxazole-4-carboxamide] |
| < 10 µM | – | < 10 µM | COc1ccc(Nc2oc(-c3c(F)cccc3F)nc2C(N)=O)cc1 [Example P-1, 2-(2,6-difluorophenyl)-5-(4-methoxyphenylamino)oxazole-4-carboxamide] |
| < 10 µM | < 10 µM | – | NC(=O)c1nc(-c2c(F)cccc2F)oc1Nc1ccc(N2CCOCC2)cc1 [Example Q-1, 2-(2,6-difluorophenyl)-5-(4-morpholinophenylamino)oxazole-4-carboxamide] |
| < 10 µM | < 100 µM | – | COc1ccc(-c2oc(Nc3cccc(OC)c3)nc2C(N)=O)cc1 [Example R-3, 5-(4-methoxyphenyl)-2-(3-methoxyphenylamino)oxazole-4-carboxamide] |
| < 100 µM | < 100 µM | – | CN1CCN(CCOc2ccc(-c3oc(-c4c(F)cccc4N4CCN(C)CC4)nc3C(N)=O)cc2)CC1 [Example S-2, 2-(2-fluoro-6-(4-methylpiperazin-1-yl)phenyl)-5-(4-(2-(4-methylpiperazin-1-yl)ethoxy)phenyl)oxazole-4-carboxamide] |

Further lines, the molecule ahead of its results:

| SMILES | IC50 (human FLT3) | IC50 (human Aurora A) | IC50 (human FLT4) |
| --- | --- | --- | --- |
| COc1ccc(-c2nc(-c3c[nH]c4ccc(OC)cc34)[nH]c2C(N)=O)cc1 [Example B-2, 2-(5-methoxy-1H-indol-3-yl)-4-(4-methoxyphenyl)-1H-imidazole-5-carboxamide] | < 10 µM | < 100 µM | < 10 µM |
| COc1ccc(-c2oc(-c3c[nH]c4ccccc34)nc2C(N)=O)cc1 [Example E-3, 2-(1H-indol-3-yl)-5-(4-methoxyphenyl)oxazole-4-carboxamide] | < 100 µM | < 100 µM | < 10 µM |
| NC(=O)c1nc(-c2c[nH]c3ccccc23)oc1-c1cccs1 [Example E-4, 2-(1H-indol-3-yl)-5-(thiophen-2-yl)oxazole-4-carboxamide] | < 100 µM | < 100 µM | < 10 µM |
| NC(=O)c1nc(-c2c(F)cccc2F)oc1-c1ccccn1 [Example F-2, 2-(2,6-difluorophenyl)-5-(pyridin-2-yl)oxazole-4-carboxamide] | < 100 µM | – | < 100 µM |
| CN(C)c1ccc(-c2oc(-c3c(F)cccc3F)nc2C(N)=O)cn1 [Example F-7, 2-(2,6-difluorophenyl)-5-(6-(dimethylamino)pyridin-3-yl)oxazole-4-carboxamide] | < 100 µM | – | < 10 µM |
| NC(=O)c1nc(-c2c(F)cccc2F)oc1-c1cccnc1 [Example F-9, 2-(2,6-difluorophenyl)-5-(pyridin-3-yl)oxazole-4-carboxamideH] | < 100 µM | < 100 µM | < 10 µM |
| CN1CCN(Cc2ccc(-c3oc(-c4c(F)cccc4F)nc3C(N)=O)cc2)CC1 [Example F-10, 2-(2,6-difluorophenyl)-5-(4-((4-methylpiperazin-1-yl)methyl)phenyl)oxazole-4-carboxamide] | < 100 µM | < 10 µM | < 10 µM |
| CC(=O)N1CCN(Cc2ccc(-c3oc(-c4c(F)cccc4F)nc3C(N)=O)cc2)CC1 [Example F-11, 5-(4-((4-acetylpiperazin-1-yl)methyl)phenyl)-2-(2,6-difluorophenyl)oxazole-4-carboxamide] | < 100 µM | < 10 µM | < 10 µM |
| NC(=O)c1nc(-c2c(F)cccc2F)oc1-c1ccc(COCCN2CCOCC2)cc1 [Example F-12, 2-(2,6-difluorophenyl)-5-(4-((2-morpholinoethoxy)methyl)phenyl)oxazole-4-carboxamide] | < 100 µM | < 10 µM | < 10 µM |
| NC(=O)c1nc(-c2c(F)cccc2F)oc1-c1ccc(OCCN2CCCCC2)cc1 [Example F-14, 2-(2,6-difluorophenyl)-5-(4-(2-(piperidin-1-yl)ethoxy)phenyl)oxazole-4-carboxamide] | < 10 µM | < 10 µM | < 10 µM |
| CN(C)CCOc1ccc(-c2oc(-c3c(F)cccc3F)nc2C(N)=O)cc1 [Example F-15, 2-(2,6-difluorophenyl)-5-(4-(2-(dimethylamino)ethoxy)phenyl)oxazole-4-carboxamide] | < 10 µM | < 10 µM | < 10 µM |
| NCc1ccc(-c2oc(-c3c(F)cccc3F)nc2C(N)=O)cc1 [Example F-16, 5-(4-(aminomethyl)phenyl)-2-(2,6-difluorophenyl)oxazole-4-carboxamide] | < 100 µM | < 10 µM | < 10 µM |
| NC(=O)c1nc(-c2c(F)cccc2F)oc1-c1ccc(N2CCOCC2)nc1 [Example F-19, 2-(2,6-difluorophenyl)-5-(6-morpholinopyridin-3-yl)oxazole-4-carboxamide] | < 100 µM | – | < 100 µM |
| NC(=O)c1nc(-c2c(F)cccc2F)oc1-c1ccc(N)cc1 [Example F-22, 5-(4-aminophenyl)-2-(2,6-difluorophenyl)oxazole-4-carboxamide] | < 10 µM | < 10 µM | < 10 µM |
| NC(=O)c1nc(-c2c(F)cccc2Cl)oc1-c1ccc(OCCN2CCCCC2)cc1 [Example F-24, 2-(2-chloro-6-fluorophenyl)-5-(4-(2-(piperidin-1-yl)ethoxy)phenyl)oxazole-4-carboxamide] | < 10 µM | < 10 µM | < 10 µM |
| NC(=O)c1nc(-c2c(Cl)cccc2Cl)oc1-c1ccc(OCCN2CCCCC2)cc1 [Example F-25, 2-(2,6-dichlorophenyl)-5-(4-(2-(piperidin-1-yl)ethoxy)phenyl)oxazole-4-carboxamide] | < 10 µM | < 10 µM | < 10 µM |
| NC(=O)c1nc(-c2ccccc2F)oc1-c1ccc(OCCN2CCCCC2)cc1 [Example F-26, 2-(2-fluorophenyl)-5-(4-(2-(piperidin-1-yl)ethoxy)phenyl)oxazole-4-carboxamide] | < 10 µM | < 10 µM | < 10 µM |
| NC(=O)c1nc(-c2ccccc2F)oc1-c1ccc(OCCN2CCOCC2)cc1 [Example F-27, 2-(2-fluorophenyl)-5-(4-(2-morpholinoethoxy)phenyl)oxazole-4-carboxamide] | < 10 µM | < 10 µM | < 10 µM |
